Paper PMC10932284 (International Journal of Molecular Sciences, 2024)
Where two headings read alike, the source gives them in different places.

Experiments:
[1] = test system: M. tuberculosis strain susceptible to rifampicin and resistant to isoniazid; format: cell-based, Mycobacterium tuberculosis; conditions: 28 days, 37 °C
[2] = test system: M. tuberculosis strain resistant to both rifampicin and isoniazid; format: cell-based, Mycobacterium tuberculosis; conditions: for number of M. tuberculosis colonies/standard inoculum volume (0.2 mL): 28 days, 37 °C; for growth inhibition of mycobacteria (in words): both concentrations (1 and 2 µg/mL)
[3] = 1 µg/mL in Lowenstein Jensen medium
[4] = 2 µg/mL in Lowenstein Jensen medium

| SMILES | number of M. tuberculosis colonies/standard inoculum volume (0.2 mL) [1, 3] | number of M. tuberculosis colonies/standard inoculum volume (0.2 mL) [1, 4] | number of M. tuberculosis colonies/standard inoculum volume (0.2 mL) [2, 3] | number of M. tuberculosis colonies/standard inoculum volume (0.2 mL) [2, 4] | growth inhibition of mycobacteria (in words) [2] |
| --- | --- | --- | --- | --- | --- |
| CC(=O)/N=c1/sc(S(N)(=O)=O)nn1C [MTZ, reference compound] | 0 colonies | 0 colonies | 0 colonies | 0 colonies |  |
| O=C1Nc2ccccc2S(=O)(=O)N1 [2a] | 0 colonies | 0 colonies | 0 colonies | 0 colonies | inhibited |
| O=C1Nc2ccc(F)cc2S(=O)(=O)N1 [2h] | 0 colonies | 0 colonies | 0 colonies | 0 colonies | inhibited |
| O=C1Nc2ccc(O)cc2S(=O)(=O)N1 [2t] |  | 0 colonies | 0 colonies | 0 colonies | inhibited |
| CC(=O)Nc1nnc(S(N)(=O)=O)s1 [AAZ, acetazolamide, reference compound] | 0 colonies | 0 colonies | 0 colonies | 0 colonies |  |
| Cc1cc(C)c2c(c1)S(=O)(=O)NC(=O)N2 [2d] | 0 colonies | 0 colonies | 0 colonies | 0 colonies | inhibited |
| Cc1ccc2c(c1)S(=O)(=O)NC(=O)N2 [2c] | 0 colonies | 0 colonies | 0 colonies | 0 colonies | inhibited |
